Source: patent US20260049101A1, “TOPICAL TREATMENT OF SKIN CANCER USING OLIGOPEPTIDES” (BACOBA AG, priority 2022, published 2026)
Read-outs that look alike come from different tables or passages of the source. Square brackets hold non-standard residues; d marks the D form. Peptide text beside a SMILES is read from it. * marks the point of attachment. NH(1-CH2NMe2-cBu) = CN(C)CC1(N*)CCC1; Benzoyl(4-F) = O=C(c1ccc(F)cc1)*; hCha = N[C@@H](CCC1CCCCC1)C(=O)O; Aib = CC(C)(N)C(=O)O; βAla = NCCC(=O)O

Assays:
[1] = system: patient derived Basal Cell Carcinoma (BCC); experiment: Ex vivo patient-derived nodular BCC (Example 10), Ki67; type: cell-based, human; conditions: 500 nM, 4 days, compared to Vismodegib (20 μM); p<0.002
Method: Tumour material was harvested from a nodular basal cell carcinoma (BCC) from a patient's upper back.
Vismodegib (20 μM) was used as a positive control.

M130107 = conditions: read-out: IC50 M130107
Method: (§1) For the maintenance of healthy human fibroblast cell culture Dulbecco's Modified Eagle Medium (DMEM, Cat #11966025, Gibco) supplemented with 10% heat-inactivated fetal bovine serum (Cat #S006420H01, BioWest) was used. For the maintenance of melanoma cell cultures RPMI-1640 (Cat #R0883, Gibco) supplemented with L-glutamine (Cat #25030-081, Gibco), 1 mM sodium pyruvate (Cat #S8636, Sigma-Aldrich), 10% heat-inactivated fetal bovine serum (Cat #S006420H01, BioWest) and 1% Penicillin-Streptomycin (Cat #15140122, Gibco) was used. The MyLa_CTCL cell cultures were cultivated in RPMI 1640 Medium (R0883) supplemented with 2 mM L-Glutamine (G7513), 10 U/ml IL-2 (H7041), 10 U/ml IL-4 (H7291) and 10% Human AB Serum (H4522). The cutaneous squamous cell carcinoma cell cultures A431 and SCC13 were cultivated in Dulbecco's Modified Eagle Medium (DMEM, Cat #11966025, Gibco) supplemented with 10% heat-inactivated fetal bovine serum (Cat #S006420H01, BioWest).
(§2) To determine the half maximal inhibitory concentrations (IC50's) serial dilution of compounds in DMSO to 1000× was performed (10 mM, 5 mM, 1 mM, 500 μM, 250 μM, 100 μM, 10 μM, 1 μM). 2 μl of these dilutions were further diluted in 198 μl growth medium with supplements, mixed well and 10 μl were further dispensed in triplicates to the 96-well plates containing cells in 90 μl.
(§3) For each drug condition and cell culture (for each row of the triplicate) a well with only RPMI-1640 complete/KSFM/DMEM media and one with media and DMSO were made as controls. DMSO was never at a higher concentration than 0.2% v/v. Triplicates were seeded for each condition. On the day of the assay, the medium was exchanged with cell culture media containing 0.1% of Resazurin-sodium salt stock solution (stock: 0.015 mg/ml, in PBS, Cat #R7017, Sigma-Aldrich). […] With a fluorescence-based plate reader (Infinite M200 Pro, Tecan, Switzerland) using excitations between […] and emissions at 590 nM the cell-culture plates were readout. The calculations and graphs are performed with GraphPad Prism program. Vehicle treated wells were set to 100% viability.

[2] = system: cutaneous melanoma M010817; conditions: read-out: IC50 M010817
Method: as §1, §2, §3

[3] = system: healthy skin dermal fibroblasts
Method: as §1, §2, §3

[4] = system: cutaneous squamous cell carcinoma cell line SCC13; conditions: read-out: IC50 SCC13
Method: as §1, §2, §3

[5] = system: cutaneous melanoma M150507; conditions: read-out: IC50 M150507
Method: as §1, §2, §3

[6] = system: B16F10 xenografts in C57BL/6 mice; experiment: In vivo efficacy test, dermal treatment of intradermal B16-F10 tumours (tumour volume); set-up: species or system mouse; conditions: for T/C [%] (ratio of mean tumour volume of treated over control) / RTV Mean / RTV Median / Tumour Volume [cm^3] Mean / Tumour Volume [cm^3] Median: 20 μl of 5% 6027 dermally daily from day 1; for RTV Mean / RTV Median / Tumour Volume [cm^3] Mean / Tumour Volume [cm^3] Median: n=8
Method: In vivo efficacy test methodology. C57Bl/6 mice (Janvier Labs); females; 6-8 weeks old at beginning of the treatment. The tumour was induced through intradermal inoculation of 1×10^5 cells per mouse intradermally in the skin of the neck. A total of 24 mice were used (n=8 for vehicle, n=8 for 5% 6027, n=8 for leucinostatin A 0.2%). Test item was applied starting on day 1 after inoculation of the tumour cells. The test items of 20 μl of 5% 6027 and of 0.2% Leucinostatin A were applied dermally with a pipette once a day every day for up to 21 days to the intact skin area of about 1 cm^2 on the site were the B16-F10 cells had been injected. If ulceration occurred then the animal was removed from the test and sacrificed.
The read out was tumour volume measured three times a week expressed as tumour volume (in cm^3). Additionally, tumour samples were taken for histological analysis (Tumour FFPE) (2 mice per group).

[7] = system: B16-F10 mouse melanoma cells; experiment: In vitro cell viability assay on B16-F10; type: cell-based; conditions: B16-F10, 72 hours, resazurin
Method: In vitro cell viability assay methodology.
Half maximal inhibitory concentration (IC50) of the compounds was determined by seeding of cell culture into 96 well-plates (Cat #353072, Corning) and treated the day after with dose-escalating concentrations of the compounds (from 0.001 μM to 10 μM in RPMI-1640 complete) for 72 hours. 1000 cells were seeded per well. […] Triplicates were seeded for each condition. […] Vehicle treated wells were set to 100% viability.

[8] = system: patient derived Basal Cell Carcinoma (BCC); type: cell-based, human; conditions: 4 days, vs DMSO; for cell proliferation (Ki67): p<0.002
Excerpt: Tumour material was harvested from an infiltrative basal cell carcinoma (BCC) from a patient's nose.

[9] = system: patient derived Basal Cell Carcinoma (BCC); type: cell-based, human; conditions: 500 nM, 4 days, vs DMSO

With `CC(C)C[C@H](NC(=O)[C@H](CCC1CCCCC1)NC(=O)[C@@H]1CCCN1C(=O)c1ccc(F)cc1)C(=O)NC(C)(C)C(=O)N[C@@H](CC(C)C)C(=O)N[C@@H](CC(C)C)C(=O)NC(C)(C)C(=O)NC(C)(C)C(=O)NCCC(=O)NC1(CN(C)C)CCC1` [Compound 6027, (2S)-2-[(2S)-4-cyclohexyl-2-{[(2S)-1-(4-fluorobenzoyl)pyrrolidin-2-yl]formamido}butanamido]-N-(1-{[(1S)-1-{[(1S)-1-({1-[(1-{[2-({1-[(dimethylamino)methyl]cyclobutyl}carbamoyl)ethyl]carbamoyl}-1-methylethyl)carbamoyl]-1-methylethyl}carbamoyl)-3-methylbutyl]carbamoyl}-3-methylbutyl]carbamoyl}-1-methylethyl)-4-methylpentanamide] ({Benzoyl(4-F)}-P[hCha]L[Aib]LL[Aib][Aib][βAla]-{NH(1-CH2NMe2-cBu)}) the “cell proliferation (Ki67)” value [1] was “significantly reduced”, the IC50 (M130107) was 0.169 µM and the IC50 [2] was 0.06 µM. For the same molecule, the “cytotoxicity against healthy skin dermal fibroblasts compared with skin cancer cell lines” value [3] was “less pronounced”, the IC50 ([3]; read-out: IC50 Fibroblast, healthy skin dermal fibroblasts) was 3.03 µM and the IC50 [4] was 0.191 µM. For the same molecule, the IC50 [5] was 0.056 µM, the “T/C [%] (ratio of mean tumour volume of treated over control)” value ([6]; day 1) was 100% and the “RTV Mean” value ([6]; day 1) was 1.0. For the same molecule, the “RTV Median” value ([6]; day 1) was 1.0, the “Tumour Volume [cm^3] Mean” value ([6]; day 1) was 0.001 cm^3 and the “Tumour Volume [cm^3] Median” value ([6]; day 1) was 0.001 cm^3. The “T/C [%] (ratio of mean tumour volume of treated over control)” value ([6]; day 2) was 100%, the “RTV Mean” value ([6]; day 2) was 1.0 and the “RTV Median” value ([6]; day 2) was 1.0. The “Tumour Volume [cm^3] Mean” value ([6]; day 2) was 0.001 cm^3, the “Tumour Volume [cm^3] Median” value ([6]; day 2) was 0.001 cm^3 and the “T/C [%] (ratio of mean tumour volume of treated over control)” value ([6]; day 4) was 100%. The “RTV Mean” value ([6]; day 4) was 1.0, the “RTV Median” value ([6]; day 4) was 1.0 and the “Tumour Volume [cm^3] Mean” value ([6]; day 4) was 0.001 cm^3. The “Tumour Volume [cm^3] Median” value ([6]; day 4) was 0.001 cm^3, the “T/C [%] (ratio of mean tumour volume of treated over control)” value ([6]; day 7) was 71% and the “RTV Mean” value ([6]; day 7) was 8.8. For the same molecule, the “RTV Median” value ([6]; day 7) was 9.0, the “Tumour Volume [cm^3] Mean” value ([6]; day 7) was 0.009 cm^3 and the “Tumour Volume [cm^3] Median” value ([6]; day 7) was 0.009 cm^3. The “T/C [%] (ratio of mean tumour volume of treated over control)” value ([6]; day 9) was 64%, the “RTV Mean” value ([6]; day 9) was 28.4 and the “RTV Median” value ([6]; day 9) was 25.5. For the same molecule, the “Tumour Volume [cm^3] Mean” value ([6]; day 9) was 0.028 cm^3, the “Tumour Volume [cm^3] Median” value ([6]; day 9) was 0.026 cm^3 and the “T/C [%] (ratio of mean tumour volume of treated over control)” value ([6]; day 10) was 35%. For the same molecule, the “RTV Mean” value ([6]; day 10) was 29.9, the “RTV Median” value ([6]; day 10) was 25.5 and the “Tumour Volume [cm^3] Mean” value ([6]; day 10) was 0.030 cm^3. For the same molecule, the “Tumour Volume [cm^3] Median” value ([6]; day 10) was 0.026 cm^3, the “T/C [%] (ratio of mean tumour volume of treated over control)” value ([6]; day 11) was 33% and the “RTV Mean” value ([6]; day 11) was 44.6. For the same molecule, the “RTV Median” value ([6]; day 11) was 31.0, the “Tumour Volume [cm^3] Mean” value ([6]; day 11) was 0.045 cm^3 and the “Tumour Volume [cm^3] Median” value ([6]; day 11) was 0.031 cm^3. The “reduction of tumour growth” value ([6]; topical treatment with 5% 6027 vs vehicle) was “significant reduction of tumour growth”, the IC50 [7] was 0.208 µM and the “apoptotic cells (TUNEL staining)” value ([8]; 500 nM) was “Significant increase”. For the same molecule, the “cell proliferation (Ki67)” value ([8]; 500 nM) was “significantly reduced”, the “cell proliferation (Ki67)” value ([8]; 1 μM) was “significantly reduced” and the “apoptotic cells (TUNEL staining)” value [8] was “Significant increase”. The “apoptotic cells (TUNEL positive cells)” value [9] was “Significant increase” and the “cell proliferation (Ki67)” value [9] was “significantly reduced”.
